Test system: CAFs, primary fibroblasts and MSCs
Test: Cell-based proliferation assay (Presto Blue)
Design: species or system human
Details: 5 day exposure; FIG. 8
Experimental: The effects of fibroblast growth factor 2 (FGF-2), lithium, and VPA on stem cell proliferation were then investigated, using an assay based on Presto Blue, a fluorescent marker of cellular reduction. FIG. 8 is a line graph representation illustrating proliferation of different cell lines induced by increasing concentrations of FGF-b (FGF-2) after a 5 day exposure. Relative fluorescent units were measured using a FITC filter on a Modulus Microplate Reader and plotted as a function of FGF-2. The data were modeled by sigmoidal curve fitting to calculate EC50 values. […] Proliferation of these mesenchymal cells was stimulated by recombinant human FGF-2 with EC50 values in the range of 3 ng/mL to 6 ng/mL with maximal proliferative responses at about 10 ng/mL.

Q: How did the “concentration of maximal proliferative responses” value turn out when “FGF-2: recombinant human fibroblast growth factor 2” was run?
A: The value was “about 10 ng/mL”.
